# Data as given in publication PMC8605241, “Coevolution of the bacterial pheromone ComS and sensor ComR fine-tunes natural transformation in streptococci” (The Journal of Biological Chemistry, 2021).
# Residues, ends and D or L forms follow the SMILES beside them.
# T1: ComRSth-StreptagII protein (Streptococcus thermophilus ComR) (Streptococcus thermophilus)
# T1 chain: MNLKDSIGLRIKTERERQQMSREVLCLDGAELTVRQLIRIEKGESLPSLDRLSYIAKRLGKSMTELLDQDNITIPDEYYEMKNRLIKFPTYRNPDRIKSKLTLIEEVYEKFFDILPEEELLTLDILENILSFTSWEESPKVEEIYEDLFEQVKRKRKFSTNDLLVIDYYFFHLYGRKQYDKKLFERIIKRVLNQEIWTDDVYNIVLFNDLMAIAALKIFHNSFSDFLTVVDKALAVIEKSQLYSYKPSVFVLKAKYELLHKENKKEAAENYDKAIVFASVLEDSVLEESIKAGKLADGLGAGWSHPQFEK
# What was measured:
# [1] = molecular target: ComRSth WT (Streptococcus thermophilus, UniProt A0A1L1QK15); format: cell-based; conditions: for EC50: read-out: EC50 of PcomS activity (maximum specific luciferase activity), synthetic 8-aa peptide added to S. thermophilus ΔcomS reporter strain (PcomS-luxAB), Hill fit, mean ± SD of at least three independent replicates, SD; for effect of XIP-5 substitution on activation (titration of synthetic XIPSth variants): compared with XIPSth WT (A5), PcomS-luxAB
# Method: (§1) Luciferase assays were performed as previously described ([19]). Overnight precultures were diluted to a final OD600 of 0.05 and culture samples incubated in a sterile covered white microplate with a transparent bottom (Greiner). Growth and luciferase activity (expressed in relative light units [RLUs]) of the cultures were monitored after addition or in absence of synthetic XIP peptide at 10 min intervals during at least 8 h in a multiwell plate reader (Hidex Sense, Hidex). When peptides were titrated, 0, 0.78, 1.56, 3.12, 6.25, 12.5, 25, 50, 100, and 1000 nM were added to the medium.
# [2] = molecular target: T2, ComRSth (Streptococcus thermophilus, UniProt A0A1L1QK15); test: biochemical; conditions: SD
# Method: In the case of competition assays, a fixed concentration of ComR (250 nM) and FITC N-labeled XIP peptide (30 nM) were incubated with twofold serial dilutions of unlabeled XIP variant (initial concentration of 5 μM). Plots were fitted by using GraphPad Prisma software to calculate IC50 values (half-maximal inhibitory peptide concentration).
# [3] = tested on: ComRSve WT; test: PcomS-luxAB luciferase reporter assay, S. thermophilus strain with ComRSth replaced by ComRSve; format: cell-based, Streptococcus vestibularis; conditions: reporter strain carrying ComRSve; for decrease of activation compared with wild-type XIPSve: synthetic peptide
# Method: as §1
# [4] = tested on: ComR-F171A; test: PcomS-luxAB luciferase reporter assay, ComR-F171A strain; format: cell-based, Streptococcus thermophilus; conditions: substitution added to XIP-L1A; ComR-F171A mutant strain
# Method: Luciferase assays were performed as previously described ([19]). Overnight precultures were diluted to a final OD600 of 0.05 and culture samples incubated in a sterile covered white microplate with a transparent bottom (Greiner). Growth and luciferase activity (expressed in relative light units [RLUs]) of the cultures were monitored after addition or in absence of synthetic XIP peptide at 10 min intervals during at least 8 h in a multiwell plate reader (Hidex Sense, Hidex). When peptides were titrated, 0, 0.78, 1.56, 3.12, 6.25, 12.5, 25, 50, 100, and 1000 nM were added to the medium. In order to calculate EC50 values (peptide concentration for a half maximum response), maximum luciferase activity values were fitted to Hill equation: L=Lmax×[XIP]^n/(EC50)^n+[XIP]^n where L is the luciferase activity, [XIP] is the XIP concentration, and n is the Hill coefficient. Curves were fitted with the GraphPad Prism software v.9.0.1 (GraphPad Software, Inc).
# [5] = molecular target: FITC N-labeled XIP-A5M peptide (9 aa) (Streptococcus thermophilus); test: fluorescence polarisation; 30 nM FITC N-labeled 9-aa XIP peptide, threefold serial dilutions of purified ComR from 1 uM, 10 min at 30 °C, 96-well plates; EC50 by Hill fit
# [6] = molecular target: T2, ComRSth; test: Single-molecule force spectroscopy (AFM); format: binding; conditions: polyG-linked peptide grafted on AFM tip, ComRSth on gold-coated coverslip
# Method: Gold-coated glass coverslips and cantilevers (OMCL-TR4, Olympus Ltd; nominal spring constant ∼0.02 N m^−1) were immersed overnight in an ethanol solution containing 1 mM of 10% 16- […]/90% 1-mercapto-1-undecanol (Sigma), rinsed with ethanol and dried with N2. Substrates and cantilevers were then immersed for 30 min into a solution containing 10 mg ml^−1 N-hydroxysuccinimide (NHS) and 25 mg ml^−1 1-ethyl-3-(3-dimethylaminopropyl)-carbodiimide (EDC) (Sigma), rinsed with Ultrapure water (ELGA LabWater), incubated with 0.1 mg ml^−1 ComR or polyG-XIPSth, polyG-XIP-A5M, or polyG-XIPSve peptides for 1 h, rinsed further with PBS buffer, and then immediately used without dewetting.
# For experiments of single-molecule force spectroscopy, ComR-functionalized surfaces and functionalized cantilevers with polyG-peptides were prepared as described above. Measurements were performed at room temperature in PBS with a Force Robot 300 AFM (JPK Instruments). Multiple (32 × 32) force–distance curves were recorded on areas of 500 by 500 nm^2 with an applied force of 250 pN, a constant approach, and retraction speed of 1000 nm s^−1. […] The spring constants of the cantilevers were measured by the thermal noise method ([50]). Data were analyzed with the data processing software from JPK Instruments.
# [7] = molecular target: ComRSth-StreptagII protein (Streptococcus thermophilus ComR) (Streptococcus thermophilus)
# [8] = molecular target: T1, ComRSth-StreptagII protein …; test: FP; competition with FITC-XIP-A5M
molecule,measurement,setting,value
CSCC[C@H](NC(=O)[C@H](Cc1ccccc1)NC(=O)[C@H](Cc1ccc(O)cc1)NC(=O)[C@@H]1CCCN1C(=O)[C@@H](N)C(C)C)C(=O)NCC(=O)N[C@@H](CS)C(=O)N[C@@H](CC(C)C)C(=O)O [XIP-L1V-A5M] (H-VPYFMGCL-OH),EC50,[1],1.36 ± 0.33 nM
same,EC50 compared with wild-type XIPSth,"[1]; synthetic peptide, ΔcomS reporter strain, PcomS as proxy",approximately fourfold lower
"CC(C)C[C@H](NC(=O)[C@H](CS)NC(=O)CNC(=O)[C@H](C)NC(=O)[C@H](Cc1ccccc1)NC(=O)[C@H](Cc1ccc(O)cc1)NC(=O)[C@@H]1CCCN1C(=O)[C@@H](N)CC(C)C)C(=O)O [XIPSth, reference compound] (H-LPYFAGCL-OH)",EC50,[1],4.4 ± 1.12 nM
same,IC50,[2],254 ± 49.7 nM
APFFMIYY [XIPSve-V1A],decrease of activation compared with wild-type XIPSve,[3],~130 fold
APYFMGCL [XIPSth-L1A-A5M],increased activation (fold change in EC50) with XIP-L1A (A1–A5) as reference,"[1]; substitution added to XIP-L1A, ComRSth WT reporter strain",10.4 fold
same,increased activation (fold change in EC50) with XIP-L1A as reference,[4],1.3 fold
ComRSth-StreptagII protein (Streptococcus thermophilus ComR) (natural protein),fold lower EC50 than FITC-XIPSth,[5],2 fold
LPYFIGCL [XIP-A5I],effect of XIP-5 substitution on activation (titration of synthetic XIPSth variants),[1]; ΔcomS reporter strain,improved transcriptional activation but at a lower level than A5M
LPYFTGCL [XIP-A5T],effect of XIP-5 substitution on activation (titration of synthetic XIPSth variants),[1]; ΔcomS reporter strain,neutral
"PFFMIYY [XIPSve-ΔV1, 7-aa XIPSve variant PFFMIYY]",activation of ComRSve (in words),[3]; synthetic 7-aa peptide,completely abolished
PYFAGCL [XIPSth-ΔL1],decrease of activity (fold less active),"[1]; synthetic 7-aa peptide, ComRSth WT reporter strain",~90 fold
VPFFAIYY [XIPSve-M5A],decrease of activation compared with wild-type XIPSve,[3],~40 fold
VPFFMIYY [XIPSve],binding frequency / binding probability,[6],~2%
same,median binding (adhesion) force,"[6]; PBS, room temperature, about 1000 curves per surface",58 pN
XIP-L1A-A5M (synthetic octapeptide),P (comS)-luxAB luciferase reporter in S. thermophilus cells producing ComRSth WT; fold change in EC50 against the reference XIP-L1A (substitution A5M),[7],10.4 fold
"LPYFAGCL [XIPSth (Streptococcus thermophilus XIP, synthetic octapeptide)]",IC50,[8],254 nM
same,P (comS)-luxAB luciferase reporter in S. thermophilus cells producing ComRSth WT; fold change in EC50 against the reference XIP-L1A (substitution A1L),[7],2.7 fold
PYFAGCL [XIPSth-ΔL1 (7 aa)],P (comS)-luxAB luciferase reporter in S. thermophilus cells producing ComRSth WT; activity against XIPSth WT (fold less active),[7],90
